Measured values: patent US8980795B2, “Strigolactone analogues and their use” (King Abdullah University of Science and Technology, priority 2011, dated 2015)

Assays:
ccd8 rice mutant (d10) = assay: Rice tillering assay; type: in vivo, rice (Oryza sativa L.); settings: 2 μM through nutrient solution, supplied daily, tillers counted up to 12 days
Experimental: Rice seeds were surface sterilized with 2% sodium hypochlorite. The seeds were allowed to germinate in a Petri dish on a moistened filter paper. In the meanwhile bottom of 1.5 ml eppendorf tube was cut and filled with 0.6% phyto-agar. One pre-germinated seed was planted in the center of the tube on solid phytoagar and this tube was fitted in the cap of 10 ml plastic tube. The 10 ml tube was filled with modified Hoagland nutrient solution. After two weeks of planting, the compound of formula IA (2 μM) was added through nutrient solution to half of the tubes of each rice cultivars/mutants and the remaining half were kept as control. The nutrient solution with or without the compound of formula IA was supplied daily. Number of tillers per plant was counted at 24 hours interval up to 12 days of carlactone application.

Striga hermonthica seeds = assay: Striga seed germination assay; type: in vivo; settings: concentration of 3.3 μM; positive control, same conditions
Experimental: Striga Seed Germination Assay Pre-conditioning of Striga hermonthica seeds was carried out in a first step to see the effect of germination stimulants. For this purpose clean Striga seeds were surface sterilized with 2% sodium hypochlorite in sterile water containing 0.4% of Tween-20. About 50 to 100 sterilized seeds were spread on 9-mm diameter glass fibre filter paper discs. Twelve of these discs were placed in a 9-cm diameter Petri-dish on sterilized Whatman filter paper, moistened with 3.0 ml sterilized water. After sealing with parafilm, the Petri-dishes were placed in darkness in an incubator at 30° C. After 10 days of incubation, the discs with preconditioned seeds were supposed to be ready to test germination stimulant. Surplus moisture was evaporated from each petri dish in laminar flow cabinet. The dry discs were then placed in another Petri-dish (six per Petri-dish) containing a filter paper ring (outer diameter 9 cm, inner diameter 8 cm) moistened with 0.9 ml water. Various concentration of the compound of formula IA were applied (50 μl per disc) to triplicate discs. GR24, a synthetic strigolactone analogue, was applied as positive control. Subsequently, the Striga seeds were incubated in darkness at 30° C. for another 48 hours and germination (seeds with radicle protruding through the seed coat) scored with the help of a binocular microscope.

SMILES	tiller number (ccd8 rice mutant (d10))	germination activity (Striga hermonthica seeds)
CC1=CC(O/C=C(C)\C=C\C2=C(C)CCCC2(C)C)OC1=O (centres unmarked) [Compound IA]	reduction of tiller number	–
CC1CC(O/C=C2/C(=O)OC3c4ccccc4CC23)OC1=O (centres unmarked) [GR24]	–	~50%
